We go through 15 compounds from US20260055083A1, “APOL1 INHIBITORS AND METHODS OF USE” (Maze Therapeutics, Inc., priority 2022, published 2026).

The structures appear in SMILES notation.

The target of assay [1] is T1, APOL1 G2 (Homo sapiens, UniProt O14791, DEL388-389).
T1 construct: expressed in transfected cells; host or cells: HEK293/T-REx APOL1 G2 clone #2, doxycycline-inducible
T1 sequence (O14791 with tags, fused parts or gaps DEL388-389): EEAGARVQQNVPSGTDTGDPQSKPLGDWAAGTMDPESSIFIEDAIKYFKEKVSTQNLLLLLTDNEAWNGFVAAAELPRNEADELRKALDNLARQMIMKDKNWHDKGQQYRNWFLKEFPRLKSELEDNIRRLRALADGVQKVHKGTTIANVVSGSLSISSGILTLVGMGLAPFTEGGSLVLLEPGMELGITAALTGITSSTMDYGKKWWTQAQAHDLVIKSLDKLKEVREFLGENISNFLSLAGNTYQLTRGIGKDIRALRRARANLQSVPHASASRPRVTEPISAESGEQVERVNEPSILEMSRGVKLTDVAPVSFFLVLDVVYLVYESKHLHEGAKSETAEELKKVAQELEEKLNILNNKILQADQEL
Kind of assay: APOL1 G2 HEK293 rescue of cell death caused by overexpression of APOL1 (CellTiter-Glo). In kind it is cell-based. The conditions noted are these: HEK293/T-REx APOL1 G2 clone #2, doxycycline induction, 17 hours, CellTiter-Glo luminescence; reversal of cell death; geometric mean of at least 2 assay runs. The method, boiled down:
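Doxycycline (6 ng/mL)-induced HEK293/T-REx APOL1 G2 clone seeded at 5,000 cells/well with compound in duplicate 8-point 3-fold series (0.5% DMSO), 17 h at 37 °C. CellTiter-Glo luminescence; EC50 from four-parameter logistic fit, geometric mean of ≥2 runs.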
(Cellular ATP, detected with luciferase, serves as a proxy for viable cell number.)

For assay [2], the target named is T1, APOL1 G2. The assay can be described thus: APOL1 G2 FLIPR calcium influx assay (HEK T-REx/GCaMP6f/APOL1 G2 K6.3 cells). In kind it is cell-based. The conditions noted are these: HEK293 clone expressing GCaMP6f, doxycycline-induced APOL1 G2; prevention of calcium influx; geometric mean of at least 2 assay runs. As for the experimental part:
A HEK293 clonal cell line was generated to stably express GCaMP6f, a genetically encoded calcium indicator, and inducibly express APOL1 G2 (HEK T-REx/GCaMP6f/APOL1 G2 K6.3). Cells were maintained in the following standard complete medium: DMEM with 4.5 g/L glucose and sodium pyruvate (BioWhittaker, Lonza, BE12-614F), supplemented with 10% FBS Performance Plus (Gibco, 16000044), 1% penicillin-streptomycin (BioWhittaker, DE17-602E), 2 mM ultraglutamine-1 (BioWhittaker cat. BE 17-605/U1), 50 μg/mL Zeocin (InvivoGen, ant-zn), 2.5 μg/mL Blasticidin (InvivoGen, ant-bl-5), and 25 μg/mL Hygromycin (InvivoGen, ant-hg). Standard propagation conditions consisted of plating 9×10^6, 4×10^6, 2×10^6 cells in a T225 flasks to be processed after 2, 3, or 4 days, respectively.
A source plate was generated containing 20 serially diluted compounds in DMSO (duplicate 8-point dose response). Next, 0.8 μL of compounds were transferred from the source plate to a destination plate prefilled with 79.2 μL of Ca^2+ free Tyrode's buffer (130 mM NaCl, 5 mM KCl, 1 mM MgCl2, 5 mM NaHCO3, 20 mM HEPES at pH 7.4). The destination plate was placed on a plate shaker (5 seconds at 2000 rpm) to mix. […] All transfer and mixing steps were conducted with an CyBi®-Well dispenser.
Cells were split by gently washing with DPBS (Euroclone, ECB4004L), followed by a 5-minute incubation (humidified, 37° C. with 5% CO2) with trypsin-EDTA solution (Euroclone, ECB3052D). Detached cells were diluted with standard complete medium without selective agents, counted, and plated in a 384 MTP microplate (GR4332CPL, Twin Helix) (10,000 cells/well in 25 μl/well) using a MATRIX WellMate dispenser. Plates were placed into a humidified incubator (37° C. with 5% CO2) overnight. The following day, 20 μL of doxycycline (Sigma, D9891) at 20 ng/mL in standard complete medium was added to cells with a CyBi®Drop dispenser to induce APOL1 G2 expression. After a 6-hour incubation (humidified, 37° C. with 5% CO2), cells were washed 3 times with Ca^2+ free Tyrode's Buffer (130 mM NaCl, 5 mM KCl, 1 mM MgCl2, 5 mM NaHCO3, 20 mM HEPES at pH 7.4) using a BIOTEK Microplate washer, such that 10 μL of buffer remained in each well after the final wash. Assay plates were then stored at room temperature for 10 minutes. Next, 10 μL of diluted compounds were transferred to the assay plate from the 2× compound plate using a CyBi®-Well dispenser. Compound incubation was then carried out at room temperature for 10 minutes. The assay plate was transferred to the […] and 20 μL of 10 mM Ca^2+ (final concentration=5 mM) Tyrode's buffer was injected.
Table B1 below summarizes the data from this experiment. Unless otherwise specified, AC50 and values are reported as the geometric mean of at least 2 assay runs on separate days. Each run represents the average of a technical replicate, where each compound was assayed twice in the same plate. A superscript t symbol indicates a value from the average of a technical replicate from a single assay run, where each compound was assayed twice in the same plate.
The AC50 values in Table B1 below reflect the compound's ability to prevent calcium influx by inhibiting APOL1. […] Compounds in Table B1 are referred to by the corresponding Compound Number in Table 1, which is also referred to in the synthetic examples. When one or more of the numbered compounds are identified by stereochemistry (for example, (R)- or (S)-), the specific stereoisomer for which data is provided in Table B1 may be identified by the elution order of such compound as described in the synthetic examples. To illustrate, Compound 2 is the first-eluting enantiomer of step 4 of Example 1 and Compound 3 is the second-eluting enantiomer of step 4 of Example 1. Further, by way of illustration, Compound 27 is the first-eluting enantiomeric mixture in step 4 of Example 7 and Compound 28 is the second-eluting enantiomeric mixture in step 4 of Example 7. […]

Turning to `C[C@@H]1C[C@H](COc2ccc(S(=O)(=O)CCS(C)(=O)=O)cc2)CN1C1CCc2ccc(Cl)cc2C1` (single isomer, unassigned) [Compound 51, (2R,4S)-1-[(2R or 2S)-7-chloro-1,2,3,4-tetrahydronaphthalen-2-yl]-4-{[4-(2-methanesulfonylethanesulfonyl)phenoxy]methyl}-2-methylpyrrolidine], on APOL1 G2 [1], the EC50 (commonly the concentration needed to bring the measured effect to its halfway point) came out at 128 nM. Moreover, the AC50 (as a rule, the midpoint of the concentration-response curve, whichever way the signal moves) at APOL1 G2 [2] is 439 nM.
On the same counts, the results for `C[C@@H]1C[C@H](COc2ccc(S(C)(=O)=O)cc2)CN1C1CCc2ccc(C#N)cc2C1` (single isomer, unassigned) [Compound 136, (7S or 7R)-7-[(2R,4S)-4-[(4-methanesulfonylphenoxy)methyl]-2-methylpyrrolidin-1-yl]-5,6,7,8-tetrahydronaphthalene-2-carbonitrile] are 704 nM and 707 nM.
The matching figures for `CS(=O)(=O)c1ccc(OC[C@@H]2CN(CCc3cc(Cl)cc(C#N)c3)C[C@H]2CO)cc1` [Compound 24, 3-chloro-5-{2-[(3S,4S)-3-(hydroxymethyl)-4-[(4-methanesulfonylphenoxy)methyl]pyrrolidin-1-yl]ethyl}benzonitrile]: 410 nM and 310 nM.
As to `C[C@@H]1C[C@H](COc2ccc(S(=O)(=O)CCS(C)(=O)=O)cc2)CN1C1CCc2ccc(C#N)cc2C1` (single isomer, unassigned) [Compound 33, 7S or 7R)-7-[(2R,4S)-4-{[4-(2-methanesulfonylethanesulfonyl)phenoxy]methyl}-2-methylpyrrolidin-1-yl]-5,6,7,8-tetrahydronaphthalene-2-carbonitrile], the EC50 at APOL1 G2 [1] was 133 nM. Further, the AC50 on APOL1 G2 [2] stood at 662 nM.
In the case of `C[C@@H]1CN(CC(O)c2cccc(Cl)c2)C[C@H]1COc1ccc(S(C)(=O)=O)cc1` (single isomer, unassigned) [Compound 144, (1S) or (1R)-1-(3-chlorophenyl)-2-[trans-3-[(4-methanesulfonylphenoxy)methyl]-4-methylpyrrolidin-1-yl]ethan-1-ol], the EC50 on APOL1 G2 [1] came out at 289 nM. The AC50 at APOL1 G2 [2] came to 265 nM.
Take `CC(C(O)c1cc(Cl)cc(C#N)c1)N1C[C@@H](COc2ccc(S(C)(=O)=O)cc2)C[C@H]1C` (single isomer, unassigned) [Compound 98, 3-chloro-5-[(1R,2S or 1S,2R or 1S,2S or 1R,2R)-1-hydroxy-2-[(2R,4S)-4-[(4-methanesulfonylphenoxy)methyl]-2-methylpyrrolidin-1-yl]propyl]benzonitrile]: the EC50 at APOL1 G2 [1] is above 10000 nM. Moreover, the AC50 on APOL1 G2 [2] was 2840 nM.
Turning to `C[C@@H]1C[C@H](COc2ccc(S(=O)(=O)CCO)cc2)CN1C1CCc2ccc(C#N)cc2C1` (stereo partly drawn) [Compound 58, 7-[(2R,4S)-4-{[4-(2-hydroxyethanesulfonyl)phenoxy]methyl}-2-methylpyrrolidin-1-yl]-5,6,7,8-tetrahydronaphthalene-2-carbonitrile], the EC50 on APOL1 G2 [1] amounted to 43.5 nM. In addition, the AC50 on APOL1 G2 [2] came to 581 nM.
For the compound `C[C@@H]1C[C@H](COc2ccc(S(C)(=O)=O)cc2)CN1C1Cc2ccc(Cl)cc2C1` (single isomer, unassigned) [Compound 4, (2R,4S)-1-[(2S or 2R)-5-chloro-2,3-dihydro-1H-inden-2-yl]-4-[(4-methanesulfonylphenoxy)methyl]-2-methylpyrrolidine], the EC50 at APOL1 G2 [1] came out at 2350 nM. On APOL1 G2 [2], the AC50 came out at 1140 nM.
In the case of `C[C@@H]1C[C@H](COc2cnc(S(C)(=O)=O)cn2)CN1CCc1cccc(C#N)c1` [Compound 1, 3-(2-((2R,4S)-2-methyl-4-(((5-(methylsulfonyl)pyrazin-2-yl)oxy)methyl)pyrrolidin-1-yl)ethyl)benzonitrile], the EC50 on APOL1 G2 [1] stood at 53.7 nM. The concentration at half-maximal activity (AC50) at APOL1 G2 [2] is 39.7 nM.
The matching figures for `C[C@@H]1C[C@H](COc2ccc(S(=O)(=O)CCO)cc2)CN1C1CCc2c(C#N)cc(Cl)cc2C1` (single isomer, unassigned) [Compound 56, (6R or 6S)-3-chloro-6-[(2R,4S)-4-{[4-(2-hydroxyethanesulfonyl)phenoxy]methyl}-2-methylpyrrolidin-1-yl]-5,6,7,8-tetrahydronaphthalene-1-carbonitrile]: 185 nM and 714 nM.
The matching figures for `CS(=O)(=O)c1ccc(OC[C@@H]2CN(CCc3cc(Cl)cc(C#N)c3)CCN2)cc1C(F)(F)F` [Compound 114, 3-chloro-5-{2-[(3S)-3-{[4-methanesulfonyl-3-(trifluoromethyl)phenoxy]methyl}piperazin-1-yl]ethyl}benzonitrile]: 295 nM and 868 nM.
For the compound `C[C@@H]1CN(C(CO)Cc2cccc(Cl)c2)C[C@H]1COc1ccc(S(C)(=O)=O)cc1` (single isomer, unassigned) [Compound 116, (2R or 2S)-3-(3-chlorophenyl)-2-[(3S,4S)-3-[(4-methanesulfonylphenoxy)methyl]-4-methylpyrrolidin-1-yl]propan-1-ol], on APOL1 G2 [1], the EC50 is above 10000 nM. For the same compound, the AC50 at APOL1 G2 [2] was determined as 1700 nM.
Turning to `C[C@@H]1CN(CCc2cccc(C#N)c2)C[C@H]1COc1ccc(S(C)(=O)=O)c(C#N)c1` [Compound 86, 5-{[(3S,4S)-1-[2-(3-cyanophenyl)ethyl]-4-methylpyrrolidin-3-yl]methoxy}-2-methanesulfonylbenzonitrile], on APOL1 G2 [1], the EC50 turned out to be 20.4 nM. Further, the AC50 on APOL1 G2 [2] is 117 nM.
The matching figures for `CC(Cc1cc(Cl)cc(C#N)c1)N1C[C@@H](COc2ccc(S(C)(=O)=O)cc2)C[C@H]1C` (single isomer, unassigned) [Compound 11, 3-chloro-5-[(2R or 2S)-2-[(2R,4S)-4-[(4-methanesulfonylphenoxy)methyl]-2-methylpyrrolidin-1-yl]propyl]benzonitrile]: 137 nM and 1130 nM.
On the same counts, the results for `C[C@@H]1C[C@H](COc2ccc(S(C)(=O)=O)cc2)CN1C1CCc2ccc(C#N)cc2C1` (single isomer, unassigned) [Compound 137, (7R or 7S)-7-[(2R,4S)-4-[(4-methanesulfonylphenoxy)methyl]-2-methylpyrrolidin-1-yl]-5,6,7,8-tetrahydronaphthalene-2-carbonitrile] are 35.8 nM and 222 nM.
